Values after ≈ are worked out from the molar mass of the structure shown. Like-named read-outs stand apart in the source and are kept apart here.
What was measured:
[1] = molecular target: Human recombinant cyclophilin A (Cyp A) (Homo sapiens (Human), UniProt P62937); experiment: Protease-free PPIase assay
Experimental: Protease-Free PPIase Assay
The protease-free PPIase assay measures the rate of cis to trans conversion of a peptide substrate catalyzed by the enzyme cyclophilin A. Addition of a cyclophilin A inhibitor (e.g., a test compound) slows the catalyzed rate and a Ki value is obtained.
35 mM HEPES pH 7.8, filtered through a 0.2 μm filter. 50 μM DTT was added prior to use each day and then the buffer was stored on ice.
Human recombinant cyclophilin A (Cyp A) (Sigma C3805) enzyme was diluted to 1 μM with enzyme dilution buffer (20 mM HEPES pH 7.8, 40% glycerol, 50 μM DTT and 1 μM BSA) and stored at −20° C.
Succinimide-Ala-Ala-Pro-Phe-p-nitroanilide (SUC-AAPF-pNA) (from Bachem AG, L-1400), 20 mg/ml prepared in 0.5 M LiCl in trifluoroethanol.
The temperature is monitored by the use of a temperature probe. To prevent UV degradation of test compounds, the light below 290 nm was blocked using a glass slide in the light path. 1.5 ml of the assay buffer was put into a 3 ml quartz cuvette and cooled to 10.0±0.1° C. while stirring (vigorous but not so fast as to produce cavitation). The inhibitor was diluted in 100% DMSO, and then added to the assay to a maximum final concentration of 0.5% DMSO in the assay. A blank spectrum was obtained, then 3 μL of enzyme was added (2 nM final concentration) and then 3 μL substrate (60 μM final concentration) added. The absorbance was measured at 330 nm for 300 s or 500 s for blank runs (NOTE: the substrate must be added in one quick injection and the measurements started immediately to minimize mixing errors).
A first order rate equation was fitted to the absorbance data, for each concentration of inhibitor, to obtain the rate constant (the first 10 to 15 seconds were excluded as mixing causes errors in this portion of curve). The catalytic rate was calculated from the enzymatic rate constant minus the background rate constant. An exponential curve was generated using the catalytic rate constants versus the inhibitor concentration to obtain the Ki value for the inhibitor. The Ki value is indicative of the binding affinity between the test compound and cyclophilin A.

[2] = molecular target: calcineurin/cyclophilin A (Homo sapiens (Human), UniProt P62937+P63098+Q08209); experiment: Calcineurin Phosphatase (CaN) Assay (+CypA); format: biochemical; conditions: in the presence of Cyp A, 1:1 complex with inhibitor; read-out: Calcineurin Phosphatase (CaN) Assay (+CypA) IC50
Description: Calcineurin Phosphatase (CaN) Assay
The calcineurin phosphatase assay is a means for estimating the immunosuppressive potential of a test compound. Calcineurin is a serine-threonine protein phosphatase that on activation dephosphorylates members of the nuclear factor of activated T cells (NFAT), which are important in T lymphocyte activation.
To investigate the immunosuppressive potential of exemplary compounds of Formula I, which are cyclosporin analogs, their ability to inhibit calcineurin activity was measured in the presence and absence of Cyp A.
The CaN assay kit used is based on a colorimetric assay for measuring calcineurin phosphatase activity, and it is commercially available (Enzo Life Sciences and Calbiochem). Calmodulin is also required for calcineurin activity and RII phosphopeptide is used as an efficient peptide substrate for calcineurin. […] The detection of free phosphate released is based on the classic Malachite green assay.
Enzo Life Sciences CaN Assay Kit: BML-AK804
Malachite Green: BIOMOL Green™ reagent
Calmodulin (Human, recombinant): was thawed on ice, diluted 1:50 with 2× assay buffer, and then stored on ice.
Calcineurin: was thawed quickly, stored on ice immediately, diluted 1:12.5 with 1× assay buffer, and then stored on ice.
R-II Substrate: 915 μL ultrapure water (UPW) was added to the 1.5 mg vial substrate to give a final concentration of 0.75 mM.
Inhibitors: 2.5 mM inhibitor in 100% DMSO.
Cyp A: recombinant human CypA (Sigma C3805), 1 mg/ml; Recombinant 6-His tagged CypA prepared by the University of Edinburgh was also used.
Inhibitor dilutions: inhibitor compounds were diluted in UPW in polypropylene low-binding 96 well plates at 5× the final assay concentration.
Assay Setup: using the half area 96 well plates supplied with the kit, 10 μl UPW was added to duplicate wells to provide the non-inhibited control. 10 μl of the inhibitor or the inhibitor/Cyp A complex was added to the appropriate sample wells. 25 μl of the 2× assay buffer with CaM was added to all wells, then 5 μl of CaN was added to all wells (40 U per well final concentration) except duplicate ‘no calcineurin blank’ wells to which 5 μL 1× assay buffer was added. The assay plate was placed in an oven at 30° C. for 15 minutes to equilibrate to the reaction temperature. The reaction was started by the addition of 10 μl RII-peptide (0.15 mM final concentration). The reaction was allowed to proceed at 30° C. for a time period in which the reaction is linear for about 60 minutes. The reaction was then terminated by adding 100 μl of the Malachite Green reagent. The color was allowed to develop for 15-30 minutes at room temperature before the absorbance at 620 nm was measured using a plate reader (Molecular Devices—SpectraMax M5). The data were analyzed by subtracting ‘no Calcineurin blank’ from all the absorbance readings and plotting the background corrected absorbances against Log10 inhibitor concentration. A sigmoidal-dose response curve was fitted to the data using GraphPad Prism Software.
It exerts its immunosuppressive activity by binding to cyclophilin A to form a complex, which then binds to calcineurin and thereby inhibits calcineurin activity.

[3] = Water Solubility Assay (measured in pH 7.8 buffer); format: physicochemical; conditions: 25 °C, kinetic from dmso stock
Experimental: Water Solubility Assay (Measured in pH 7.8 Buffer)
The aqueous solubility of a compound of Formula I in buffer (pH 7.8) was measured by recording the onset of precipitation of the compound as a function of increasing concentration. The onset of precipitation, if it occurred, was detected by an increase in absorbance at 650 nm.
Assay Buffer: 35 mM HEPES pH 7.8
Stock solutions of Control and Test Compounds: 10 mM in 100% DMSO.
10 mM stock solutions of control and test compounds were prepared in 100% DMSO.
Assay buffer (247.5 μl) was placed into flat bottomed transparent 96-well plate. For blank samples DMSO (2.5 μl) was added. For test and control samples 2.5 μl of the appropriate DMSO dilution stocks were added to the appropriate well. All test and control compounds were performed in triplicate.
The plates were sealed with adhesive plate seal and shaken at 250 rpm at 25° C. for 18 h on a plate shaker. After incubation the plate seals were taken off and any bubbles observed in wells removed. The plates were read on a SpectraMaxM5 with a 5 s pre-shake at 650 nm. Data files were transferred to the appropriate worksheet and the solubility range of the compounds was calculated from the data. The values shown in the Tables indicate the concentration in μM (micromolar) at which the compound remains in solution.

[4] = read-out: Protease-free PPIase Assay Ki, human recombinant Cyp A, 10 °C

Row | SMILES | Ki [1] | IC50 [2] | solubility at 18 h ([3]; pH 7.8, aqueous buffer) | Ki [1, 4] | solubility at 18 h ([3]; 35 mM HEPES buffer pH 7.8, aqueous buffer, 35 mM HEPES pH 7.8, 1% DMSO, 18 h, read-out: Water Solubility Assay, concentration at which the compound remains in solution)
1 | CC[C@H]1NC(=O)[C@@H]([C@H](O)[C@H](C)CCCc2ncccn2)N(C)C(=O)[C@@H](C(C)C)N(C)C(=O)[C@@H](CC(C)C)N(C)C(=O)[C@@H](CC(C)C)N(C)C(=O)[C@H](C)NC(=O)[C@@H](C)NC(=O)[C@@H](CC(C)C)N(C)C(=O)[C@@H](C(C)C)NC(=O)[C@H](CC(C)C)N(C)C(=O)[C@@H](C)N(C)C1=O [Compound 22, [(2S,3R,4R)-3-Hydroxy-4-methyl-2-(methylamino)-7-(pyrimidin-2-yl)-heptanoic acid]^1 [(R)-methyl-Sar]^3 cyclosporin A] | 3.2 nM | 1160 nM | > 100 µM | – | –
2 | CC[C@H]1NC(=O)[C@@H]([C@H](O)[C@H](C)CCCCc2ccccn2)N(C)C(=O)[C@@H](C(C)C)N(C)C(=O)[C@@H](CC(C)C)N(C)C(=O)[C@@H](CC(C)C)N(C)C(=O)[C@H](C)NC(=O)[C@@H](C)NC(=O)[C@@H](CC(C)C)N(C)C(=O)[C@@H](C(C)C)NC(=O)[C@H](CC(C)C)N(C)C(=O)[C@@H](C)N(C)C1=O [Compound 28, [(2S,3R,4R)-3-Hydroxy-4-methyl-2-(methylamino)-8-(pyridin-2-yl)-octanoic acid]^1 [(R)-methyl-Sar]^3 cyclosporin A] | 3.9 nM | > 10000 nM | 50 to 75 µM (≈ 64.8 to 97.2 µg/mL) | – | –
3 | CC[C@H]1NC(=O)[C@@H]([C@H](O)[C@H](C)Cc2nccn2CCc2cccnc2)N(C)C(=O)[C@@H](C(C)C)N(C)C(=O)[C@@H](CC(C)C)N(C)C(=O)[C@@H](CC(C)C)N(C)C(=O)[C@H](C)NC(=O)[C@@H](C)NC(=O)[C@@H](CC(C)C)N(C)C(=O)[C@@H](C(C)C)NC(=O)[C@H](CC(C)C)N(C)C(=O)[C@@H](C)N(C)C1=O [Compound 7, [(2S,3R,4R)-3-Hydroxy-4-methyl-2-(methylamino) 5-(1-(pyridin-3-yl-ethyl)-1H-imidazol-2-yl)pentanoic acid]^1 [(R)-methyl-Sar]^3 cyclosporin A] | – | 7850 nM | – | 5.6 nM | > 100 µM
4 | CC[C@H]1NC(=O)[C@@H]([C@H](O)[C@H](C)CCCc2ccncc2)N(C)C(=O)[C@@H](C(C)C)N(C)C(=O)[C@@H](CC(C)C)N(C)C(=O)[C@@H](CC(C)C)N(C)C(=O)[C@H](C)NC(=O)[C@@H](C)NC(=O)[C@@H](CC(C)C)N(C)C(=O)[C@@H](C(C)C)NC(=O)[C@H](CC(C)C)N(C)C(=O)CN(C)C1=O [Compound 30, [(2S,3R,4R)-3-Hydroxy-4-methyl-2-(methylamino)-7-(pyridin-4-yl)-heptanoic acid]^1 cyclosporin A] | 14 nM | 3150 nM | 50 to 75 µM (≈ 63.4 to 95.1 µg/mL) | – | –
5 | CC[C@H]1NC(=O)[C@@H]([C@H](O)[C@H](C)CCCc2cnccn2)N(C)C(=O)[C@@H](C(C)C)N(C)C(=O)[C@@H](CC(C)C)N(C)C(=O)[C@@H](CC(C)C)N(C)C(=O)[C@H](C)NC(=O)[C@@H](C)NC(=O)[C@@H](CC(C)C)N(C)C(=O)[C@@H](C(C)C)NC(=O)[C@H](CC(C)C)N(C)C(=O)[C@@H](C)N(C)C1=O [Compound 18, [(2S,3R,4R)-3-Hydroxy-4-methyl-2-(methylamino)-7-(pyrazin-2-yl)-heptanoic acid]^1 [(R)-methyl-Sar]^3 cyclosporin A] | 2.2 nM | 5800 nM | 50 to 75 µM (≈ 64.1 to 96.2 µg/mL) | – | –
6 | CC[C@H]1NC(=O)[C@@H]([C@H](O)[C@H](C)CCCc2cccnn2)N(C)C(=O)[C@@H](C(C)C)N(C)C(=O)[C@@H](CC(C)C)N(C)C(=O)[C@@H](CC(C)C)N(C)C(=O)[C@H](C)NC(=O)[C@@H](C)NC(=O)[C@@H](CC(C)C)N(C)C(=O)[C@@H](C(C)C)NC(=O)[C@H](CC(C)C)N(C)C(=O)[C@@H](C)N(C)C1=O [Compound 21, [(2S,3R,4R)-3-Hydroxy-4-methyl-2-(methylamino)-7-(pyridazin-3-yl)-heptanoic acid]^1 [(R)-methyl-Sar]^3 cyclosporin A] | 3.2 nM | > 10000 nM | > 100 µM | – | –
7 | CC[C@H]1NC(=O)[C@@H]([C@H](O)[C@H](C)CCCc2cnn(C)c2)N(C)C(=O)[C@@H](C(C)C)N(C)C(=O)[C@@H](CC(C)C)N(C)C(=O)[C@@H](CC(C)C)N(C)C(=O)[C@H](C)NC(=O)[C@@H](C)NC(=O)[C@@H](CC(C)C)N(C)C(=O)[C@@H](C(C)C)NC(=O)[C@H](CC(C)C)N(C)C(=O)[C@@H](C)N(C)C1=O [Compound 27, [(2S,3R,4R)-3-Hydroxy-4-methyl-2-(methylamino)-7-(1-methylpyrazol-4-yl)-heptanoic acid]^1 [(R)-methyl-Sar]^3 cyclosporin A] | 6.8 nM | 1110 nM | > 100 µM | – | –
8 | CC[C@H]1NC(=O)[C@@H]([C@H](O)[C@H](C)CCCc2ccnc(C)c2)N(C)C(=O)[C@@H](C(C)C)N(C)C(=O)[C@@H](CC(C)C)N(C)C(=O)[C@@H](CC(C)C)N(C)C(=O)[C@H](C)NC(=O)[C@@H](C)NC(=O)[C@@H](CC(C)C)N(C)C(=O)[C@@H](C(C)C)NC(=O)[C@H](CC(C)C)N(C)C(=O)[C@@H](C)N(C)C1=O [Compound 17, [(2S,3R,4R)-3-Hydroxy-4-methyl-2-(methylamino)-7-(2-methyl-pyridin-4-yl)-heptanoic acid]^1 [(R)-methyl-Sar]^3 cyclosporin A] | 3.9 nM | 9250 nM | 25 to 50 µM (≈ 32.4 to 64.8 µg/mL) | – | –
9 | CC[C@H]1NC(=O)[C@@H]([C@H](O)[C@H](C)CCCc2ccccn2)N(C)C(=O)[C@@H](C(C)C)N(C)C(=O)[C@@H](CC(C)C)N(C)C(=O)[C@@H](CC(C)C)N(C)C(=O)[C@H](C)NC(=O)[C@@H](C)NC(=O)[C@@H](CC(C)C)N(C)C(=O)[C@@H](C(C)C)NC(=O)[C@H](CC(C)C)N(C)C(=O)[C@@H](SC)N(C)C1=O [Compound 35] | – | 1600 nM | 75 to 100 µM (≈ 98.5 to 131 µg/mL) | 4.4 nM | –

Reference: patent publication US10077289B2, “Cyclosporins modified on the MeBmt sidechain by heterocyclic rings” (priority 2015, dated 2018)
